Experimental data from ChEMBL document CHEMBL4507315 (2021).

What was measured:
[1] = tested on: Phosphatidylinositol 4,5-bisphosphate 3-kinase catalytic subunit alpha isoform (Homo sapiens), P42336 [H1047Y]; settings: Compound concentration 100.0 nM
[2] = target: Proto-oncogene tyrosine-protein kinase ROS (Homo sapiens) (UniProt P08922); settings: Compound concentration 100.0 nM
[3] = target: Dual specificity protein kinase CLK1 (Homo sapiens) (UniProt P49759); settings: Compound concentration 100.0 nM
[4] = target: Macrophage colony-stimulating factor 1 receptor (Homo sapiens) (UniProt P07333); settings: Compound concentration 100.0 nM
[5] = target: Serine/threonine-protein kinase NIM1 (Homo sapiens) (UniProt Q8IY84); settings: Compound concentration 100.0 nM
[6] = target: Tyrosine-protein kinase Yes (Homo sapiens) (UniProt P07947); settings: Compound concentration 100.0 nM
[7] = target: RAC-beta serine/threonine-protein kinase (Homo sapiens) (UniProt P31751); settings: Compound concentration 100.0 nM
RAC-beta serine/threonine-protein kinase (Homo sapiens), sequence (P31751 whole entry): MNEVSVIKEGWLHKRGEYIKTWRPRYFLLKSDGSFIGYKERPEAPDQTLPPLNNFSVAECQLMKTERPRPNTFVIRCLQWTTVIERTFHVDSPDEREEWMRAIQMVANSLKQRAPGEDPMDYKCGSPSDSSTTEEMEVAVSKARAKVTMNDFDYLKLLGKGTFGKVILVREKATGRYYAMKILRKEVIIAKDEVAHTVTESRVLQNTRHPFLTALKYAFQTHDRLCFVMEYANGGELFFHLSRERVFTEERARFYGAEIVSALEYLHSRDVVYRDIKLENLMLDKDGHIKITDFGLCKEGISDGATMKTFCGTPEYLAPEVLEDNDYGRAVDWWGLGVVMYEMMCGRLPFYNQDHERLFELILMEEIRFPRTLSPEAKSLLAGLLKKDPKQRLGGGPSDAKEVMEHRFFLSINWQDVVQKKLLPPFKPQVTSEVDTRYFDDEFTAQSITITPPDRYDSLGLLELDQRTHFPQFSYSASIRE

[8] = target: Serine/threonine-protein kinase PAK 1 (Homo sapiens) (UniProt Q13153); settings: Compound concentration 100.0 nM
[9] = target: Serine/threonine-protein kinase ULK2 (Homo sapiens) (UniProt Q8IYT8); settings: Compound concentration 100.0 nM
[10] = target: Mitogen-activated protein kinase 11 (Homo sapiens) (UniProt Q15759); settings: Compound concentration 100.0 nM
[11] = target: Testis-specific serine/threonine-protein kinase 3 (Homo sapiens) (UniProt Q96PN8); settings: Compound concentration 100.0 nM
Testis-specific serine/threonine-protein kinase 3 (Homo sapiens), sequence (Q96PN8 whole entry): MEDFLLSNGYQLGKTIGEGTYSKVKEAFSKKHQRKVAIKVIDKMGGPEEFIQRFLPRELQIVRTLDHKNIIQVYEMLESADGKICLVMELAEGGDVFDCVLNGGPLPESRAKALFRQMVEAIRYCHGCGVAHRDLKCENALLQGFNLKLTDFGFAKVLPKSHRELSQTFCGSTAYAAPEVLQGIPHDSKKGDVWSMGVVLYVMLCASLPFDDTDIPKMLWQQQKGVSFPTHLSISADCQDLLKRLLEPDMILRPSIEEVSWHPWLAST

[12] = target: Alpha-2B adrenergic receptor (Homo sapiens) (UniProt P18089); settings: Compound concentration 10.0 uM
Histamine H1 receptor = Histamine H1 receptor (Homo sapiens, UniProt P35367); settings: Compound concentration 10.0 uM
[13] = target: Serine/threonine-protein kinase PLK1 (Homo sapiens) (UniProt P53350); settings: Compound concentration 100.0 nM
[14] = target: Mitogen-activated protein kinase kinase kinase kinase 5 (Homo sapiens) (UniProt Q9Y4K4); settings: Compound concentration 100.0 nM
[15] = target: MAP/microtubule affinity-regulating kinase 3 (Homo sapiens) (UniProt P27448); settings: Compound concentration 100.0 nM
[16] = target: Myosin light chain kinase, smooth muscle (Homo sapiens) (UniProt Q15746); settings: Compound concentration 100.0 nM
[17] = target: Serine/threonine-protein kinase Sgk2 (Homo sapiens) (UniProt Q9HBY8); settings: Compound concentration 100.0 nM
[18] = target: Leucine-rich repeat serine/threonine-protein kinase 2 (Homo sapiens) (UniProt Q5S007); settings: Compound concentration 100.0 nM
[19] = target: Ephrin type-B receptor 2 (Homo sapiens) (UniProt P29323); settings: Compound concentration 100.0 nM
[20] = target: Serine/threonine-protein kinase WNK3 (Homo sapiens) (UniProt Q9BYP7); settings: Compound concentration 100.0 nM
[21] = target: Serine/threonine-protein kinase RIO2 (Homo sapiens) (UniProt Q9BVS4); settings: Compound concentration 100.0 nM
[22] = target: Dual specificity mitogen-activated protein kinase kinase 1 (Homo sapiens) (UniProt Q02750); settings: Compound concentration 100.0 nM
[23] = target: Serine/threonine-protein kinase 38-like (Homo sapiens) (UniProt Q9Y2H1); settings: Compound concentration 100.0 nM
[24] = tested on: Epidermal growth factor receptor (Homo sapiens), P00533 [UNDEFINED MUTATION]; settings: Compound concentration 100.0 nM
[25] = target: Serine/threonine-protein kinase 4 (Homo sapiens) (UniProt Q13043); settings: Compound concentration 100.0 nM
[26] = target: Serine/threonine-protein kinase PAK 6 (Homo sapiens) (UniProt Q9NQU5); settings: Compound concentration 100.0 nM
[27] = target: Phosphatidylinositol 4,5-bisphosphate 3-kinase catalytic subunit delta isoform (Homo sapiens) (UniProt O00329); settings: Compound concentration 100.0 nM
Phosphatidylinositol 4,5-bisphosphate 3-kinase catalytic subunit delta isoform (Homo sapiens), sequence (O00329 whole entry, canonical isoform): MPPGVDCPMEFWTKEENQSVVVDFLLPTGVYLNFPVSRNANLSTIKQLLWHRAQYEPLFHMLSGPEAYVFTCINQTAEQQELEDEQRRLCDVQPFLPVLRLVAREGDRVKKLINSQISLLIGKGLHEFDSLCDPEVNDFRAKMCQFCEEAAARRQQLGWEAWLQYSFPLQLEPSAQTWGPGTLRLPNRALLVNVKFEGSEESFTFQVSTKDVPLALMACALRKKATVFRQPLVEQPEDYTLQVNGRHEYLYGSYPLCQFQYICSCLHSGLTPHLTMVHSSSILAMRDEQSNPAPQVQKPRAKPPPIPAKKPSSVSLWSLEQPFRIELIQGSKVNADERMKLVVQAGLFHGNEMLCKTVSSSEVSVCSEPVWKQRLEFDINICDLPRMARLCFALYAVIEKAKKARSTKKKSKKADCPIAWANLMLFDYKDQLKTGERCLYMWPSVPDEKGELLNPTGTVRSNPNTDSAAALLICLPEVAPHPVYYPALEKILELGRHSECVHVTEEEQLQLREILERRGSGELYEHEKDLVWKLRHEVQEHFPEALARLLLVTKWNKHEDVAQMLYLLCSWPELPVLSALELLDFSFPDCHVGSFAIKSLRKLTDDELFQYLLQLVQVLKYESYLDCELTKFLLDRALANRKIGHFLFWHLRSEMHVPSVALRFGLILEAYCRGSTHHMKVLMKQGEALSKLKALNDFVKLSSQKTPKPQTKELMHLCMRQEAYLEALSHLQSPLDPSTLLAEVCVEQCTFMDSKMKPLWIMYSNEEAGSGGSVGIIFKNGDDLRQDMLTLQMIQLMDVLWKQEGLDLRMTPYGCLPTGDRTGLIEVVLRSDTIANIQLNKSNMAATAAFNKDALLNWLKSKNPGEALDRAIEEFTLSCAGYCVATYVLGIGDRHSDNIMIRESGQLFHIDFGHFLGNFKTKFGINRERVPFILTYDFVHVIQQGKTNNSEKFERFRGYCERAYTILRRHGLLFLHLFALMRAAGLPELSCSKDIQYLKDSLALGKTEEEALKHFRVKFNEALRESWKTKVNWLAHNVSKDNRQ

[28] = target: Myotonin-protein kinase (Homo sapiens) (UniProt Q09013); settings: Compound concentration 100.0 nM
[29] = target: Mitogen-activated protein kinase 4 (Homo sapiens) (UniProt P31152); settings: Compound concentration 100.0 nM
[30] = target: Serine/threonine-protein kinase STK11 (Homo sapiens) (UniProt Q15831); settings: Compound concentration 100.0 nM
[31] = tested on: Tyrosine-protein kinase ABL1 (Homo sapiens), P00519 [Q252H]; settings: Compound concentration 100.0 nM
[32] = target: Homeodomain-interacting protein kinase 3 (Homo sapiens) (UniProt Q9H422); settings: Compound concentration 100.0 nM
[33] = target: Ribosomal protein S6 kinase beta-1 (Homo sapiens) (UniProt P23443); settings: Compound concentration 100.0 nM
[34] = target: Protein-tyrosine kinase 6 (Homo sapiens) (UniProt Q13882); settings: Compound concentration 100.0 nM
[35] = target: NUAK family SNF1-like kinase 1 (Homo sapiens) (UniProt O60285); settings: Compound concentration 100.0 nM
[36] = target: Wee1-like protein kinase (Homo sapiens) (UniProt P30291); settings: Compound concentration 100.0 nM
[37] = target: Protein-tyrosine kinase 2-beta (Homo sapiens) (UniProt Q14289); settings: Compound concentration 100.0 nM
Protein-tyrosine kinase 2-beta (Homo sapiens), sequence (Q14289 whole entry, looked up): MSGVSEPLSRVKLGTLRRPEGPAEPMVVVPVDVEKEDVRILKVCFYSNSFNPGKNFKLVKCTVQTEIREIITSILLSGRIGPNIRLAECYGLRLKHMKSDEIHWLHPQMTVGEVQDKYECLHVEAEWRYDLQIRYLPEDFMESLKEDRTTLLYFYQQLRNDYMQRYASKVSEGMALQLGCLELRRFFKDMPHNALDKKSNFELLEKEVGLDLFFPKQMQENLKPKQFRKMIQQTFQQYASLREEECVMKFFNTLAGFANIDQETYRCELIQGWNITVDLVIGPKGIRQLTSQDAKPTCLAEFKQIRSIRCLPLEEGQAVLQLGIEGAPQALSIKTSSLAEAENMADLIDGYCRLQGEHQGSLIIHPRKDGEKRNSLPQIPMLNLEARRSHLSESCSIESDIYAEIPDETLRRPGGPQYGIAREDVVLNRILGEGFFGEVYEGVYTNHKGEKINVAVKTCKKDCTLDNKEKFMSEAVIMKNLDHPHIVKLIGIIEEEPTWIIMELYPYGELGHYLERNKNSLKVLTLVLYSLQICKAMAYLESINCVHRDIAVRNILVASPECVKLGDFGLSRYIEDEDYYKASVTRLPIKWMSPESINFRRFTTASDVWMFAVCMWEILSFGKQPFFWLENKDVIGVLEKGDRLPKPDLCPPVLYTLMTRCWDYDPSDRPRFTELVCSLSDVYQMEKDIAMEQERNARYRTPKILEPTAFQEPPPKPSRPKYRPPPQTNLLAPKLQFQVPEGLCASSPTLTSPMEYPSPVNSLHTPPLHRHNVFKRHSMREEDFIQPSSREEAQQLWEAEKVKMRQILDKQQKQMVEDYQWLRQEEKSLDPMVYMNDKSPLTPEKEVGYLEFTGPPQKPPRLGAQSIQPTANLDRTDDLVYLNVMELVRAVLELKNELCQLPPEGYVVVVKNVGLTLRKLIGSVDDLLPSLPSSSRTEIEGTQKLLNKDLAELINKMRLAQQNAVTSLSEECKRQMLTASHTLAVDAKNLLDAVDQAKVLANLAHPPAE

[38] = target: Myosin light chain kinase 2, skeletal/cardiac muscle (Homo sapiens) (UniProt Q9H1R3); settings: Compound concentration 100.0 nM
[39] = target: Alpha-1B adrenergic receptor (Homo sapiens) (UniProt P35368); settings: Compound concentration 10.0 uM
[40] = target: Serine/threonine-protein kinase WNK2 (Homo sapiens) (UniProt Q9Y3S1); settings: Compound concentration 100.0 nM
Serine/threonine-protein kinase WNK2 (Homo sapiens), sequence (Q9Y3S1 whole entry): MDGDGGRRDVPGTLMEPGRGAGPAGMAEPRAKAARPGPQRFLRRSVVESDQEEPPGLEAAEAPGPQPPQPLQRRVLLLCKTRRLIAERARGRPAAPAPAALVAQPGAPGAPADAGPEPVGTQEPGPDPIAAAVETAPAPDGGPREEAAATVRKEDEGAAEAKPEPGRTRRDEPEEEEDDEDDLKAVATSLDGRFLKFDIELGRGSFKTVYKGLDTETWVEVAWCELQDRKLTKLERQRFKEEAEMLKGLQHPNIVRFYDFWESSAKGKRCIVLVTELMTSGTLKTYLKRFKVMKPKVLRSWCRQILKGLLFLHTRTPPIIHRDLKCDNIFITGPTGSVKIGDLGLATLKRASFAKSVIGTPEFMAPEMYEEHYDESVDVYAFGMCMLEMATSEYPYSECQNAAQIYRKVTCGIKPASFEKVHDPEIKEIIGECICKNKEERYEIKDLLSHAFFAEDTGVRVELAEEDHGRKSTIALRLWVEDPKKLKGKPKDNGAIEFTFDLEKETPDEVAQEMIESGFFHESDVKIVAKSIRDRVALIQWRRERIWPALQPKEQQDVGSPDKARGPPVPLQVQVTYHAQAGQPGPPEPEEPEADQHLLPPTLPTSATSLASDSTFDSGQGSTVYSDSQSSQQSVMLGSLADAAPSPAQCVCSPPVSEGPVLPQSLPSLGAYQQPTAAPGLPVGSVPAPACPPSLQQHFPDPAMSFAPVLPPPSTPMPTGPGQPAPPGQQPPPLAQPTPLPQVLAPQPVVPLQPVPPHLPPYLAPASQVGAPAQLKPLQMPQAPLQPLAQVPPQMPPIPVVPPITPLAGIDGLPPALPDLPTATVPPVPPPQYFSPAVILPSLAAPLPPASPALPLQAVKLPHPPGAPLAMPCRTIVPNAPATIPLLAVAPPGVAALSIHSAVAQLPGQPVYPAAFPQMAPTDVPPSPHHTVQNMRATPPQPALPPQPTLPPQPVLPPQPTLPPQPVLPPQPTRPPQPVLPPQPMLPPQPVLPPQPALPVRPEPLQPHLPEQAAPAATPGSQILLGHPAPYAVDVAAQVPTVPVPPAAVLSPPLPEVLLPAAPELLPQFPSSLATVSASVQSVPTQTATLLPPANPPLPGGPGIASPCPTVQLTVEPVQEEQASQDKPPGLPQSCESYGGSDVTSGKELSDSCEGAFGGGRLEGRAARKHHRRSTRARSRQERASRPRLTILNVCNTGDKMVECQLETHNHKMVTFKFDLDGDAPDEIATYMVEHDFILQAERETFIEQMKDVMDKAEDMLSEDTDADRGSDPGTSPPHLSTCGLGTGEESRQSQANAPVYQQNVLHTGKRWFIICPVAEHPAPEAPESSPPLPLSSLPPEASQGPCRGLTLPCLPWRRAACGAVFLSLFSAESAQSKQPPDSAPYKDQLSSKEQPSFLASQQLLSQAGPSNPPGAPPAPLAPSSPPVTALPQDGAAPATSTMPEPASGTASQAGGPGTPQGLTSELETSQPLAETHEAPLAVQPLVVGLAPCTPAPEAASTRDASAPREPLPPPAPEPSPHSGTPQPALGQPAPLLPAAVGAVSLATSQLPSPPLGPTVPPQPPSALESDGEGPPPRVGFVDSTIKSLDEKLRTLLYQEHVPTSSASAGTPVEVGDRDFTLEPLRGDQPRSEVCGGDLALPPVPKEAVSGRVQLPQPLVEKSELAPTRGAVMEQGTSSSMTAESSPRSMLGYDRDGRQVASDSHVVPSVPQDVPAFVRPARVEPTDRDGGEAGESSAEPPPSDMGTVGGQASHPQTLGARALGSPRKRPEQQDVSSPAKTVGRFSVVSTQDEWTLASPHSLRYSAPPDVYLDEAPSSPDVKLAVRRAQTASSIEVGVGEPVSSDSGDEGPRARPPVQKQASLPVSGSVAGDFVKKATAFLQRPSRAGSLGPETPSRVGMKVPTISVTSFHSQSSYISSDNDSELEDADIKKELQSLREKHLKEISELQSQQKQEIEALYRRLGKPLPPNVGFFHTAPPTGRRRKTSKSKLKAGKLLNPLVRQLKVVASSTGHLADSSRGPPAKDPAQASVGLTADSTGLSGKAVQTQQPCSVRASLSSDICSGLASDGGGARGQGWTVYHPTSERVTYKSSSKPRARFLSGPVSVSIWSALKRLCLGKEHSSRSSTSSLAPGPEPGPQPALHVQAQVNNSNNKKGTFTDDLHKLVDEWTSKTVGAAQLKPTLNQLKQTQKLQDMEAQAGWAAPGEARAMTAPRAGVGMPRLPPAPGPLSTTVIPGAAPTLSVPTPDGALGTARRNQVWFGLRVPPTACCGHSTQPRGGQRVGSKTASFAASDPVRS

[41] = target: Serine/threonine-protein kinase PLK3 (Homo sapiens) (UniProt Q9H4B4); settings: Compound concentration 100.0 nM
[42] = target: Serine/threonine-protein kinase MRCK gamma (Homo sapiens) (UniProt Q6DT37); settings: Compound concentration 100.0 nM
[43] = tested on: Receptor-type tyrosine-protein kinase FLT3 (Homo sapiens), P36888 [D835Y]; settings: Compound concentration 100.0 nM
[44] = tested on: Mast/stem cell growth factor receptor Kit (Homo sapiens), P10721 [V559D]; settings: Compound concentration 100.0 nM

Structure (SMILES): Nc1c(C(=O)NCc2ccc(C(=O)NCCCC3CCCCC3)cc2)cnn1-c1ccccc1 [SR-318]
- residual activity [1]: 77%
- residual activity [2]: 83%
- residual activity [3]: 100%
- residual activity [4]: 100%
- residual activity [5]: 81%
- residual activity [6]: 100%
- residual activity [7]: 96%
- residual activity [8]: 100%
- residual activity [9]: 100%
- residual activity [10]: 3.4%
- residual activity [11]: 100%
- inhibition [12]: 17.7%
- inhibition (Histamine H1 receptor): 14.7%
- residual activity [13]: 100%
- residual activity [14]: 100%
- residual activity [15]: 78%
- residual activity [16]: 68%
- residual activity [17]: 72%
- residual activity [18]: 39%
- residual activity [19]: 100%
- residual activity [20]: 92%
- residual activity [21]: 92%
- residual activity [22]: 100%
- residual activity [23]: 44%
- residual activity [24]: 100%
- residual activity [25]: 100%
- residual activity [26]: 100%
- residual activity [27]: 94%
- residual activity [28]: 77%
- residual activity [29]: 100%
- residual activity [30]: 100%
- residual activity [31]: 87%
- residual activity [32]: 100%
- residual activity [33]: 100%
- residual activity [34]: 96%
- residual activity [35]: 100%
- residual activity [36]: 100%
- residual activity [37]: 99%
- residual activity [38]: 100%
- inhibition [39]: 8.69%
- residual activity [40]: 100%
- residual activity [41]: 100%
- residual activity [42]: 100%
- residual activity [43]: 100%
- residual activity [44]: 45%

Structure (SMILES): O=C(NCCCC1CCCCC1)c1ccc(CNC(=O)c2cnn(-c3ccccc3)c2C(F)(F)F)cc1 [SR-321]
- residual activity [1]: 100%
- residual activity [2]: 100%
- residual activity [3]: 96%
- residual activity [4]: 100%
- residual activity [5]: 70%
- residual activity [6]: 100%
- residual activity [7]: 100%
- residual activity [8]: 92%
- residual activity [9]: 100%
- residual activity [10]: 100%
- residual activity [11]: 100%
- inhibition [12]: 1.13%
- inhibition (Histamine H1 receptor): 63%
- residual activity [13]: 93%
- residual activity [14]: 88%
- residual activity [15]: 94%
- residual activity [16]: 100%
- residual activity [17]: 95%
- residual activity [18]: 57%
- residual activity [19]: 100%
- residual activity [20]: 100%
- residual activity [21]: 100%
- residual activity [22]: 89%
- residual activity [23]: 20%
- residual activity [24]: 99%
- residual activity [25]: 100%
- residual activity [26]: 100%
- residual activity [27]: 100%
- residual activity [28]: 83%
- residual activity [29]: 100%
- residual activity [30]: 100%
- residual activity [31]: 100%
- residual activity [32]: 88%
- residual activity [33]: 96%
- residual activity [34]: 97%
- residual activity [35]: 100%
- residual activity [36]: 97%
- residual activity [37]: 93%
- residual activity [38]: 100%
- inhibition [39]: -3.62%
- residual activity [40]: 100%
- residual activity [41]: 100%
- residual activity [42]: 99%
- residual activity [43]: 100%
- residual activity [44]: 100%
